Data published in the supplement of paper PMC10307832.

What was measured:
Test in all cases: relative viability (nuclei count vs DMSO), 5 days (fraction); higher = more cells survive
Doxorubicin + Crizotinib = compound: COc1cccc2c1C(=O)c1c(O)c3c(c(O)c1C2=O)C[C@@](O)(C(=O)CO)C[C@@H]3O[C@H]1C[C@H](N)[C@H](O)[C@H](C)O1 [Doxorubicin] + C[C@@H](Oc1cc(-c2cnn(C3CCNCC3)c2)cnc1N)c1c(Cl)ccc(F)c1Cl [Crizotinib] (partner 1 µM)
Procedure, shortened: (§1)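 A single step with final 0.05% Triton X-100, 1% formaldehyde and 1 ug/ml Hoechst fixed the cells and stained nuclei 5 days after treatment. Lung cancer cell lines in 1536-well plates had been treated by pin tool the day after seeding with one drug alone or a fixed anchor-drug dose plus five library-drug doses (not always all listed) in √10 steps, and nuclei were counted on 4× images. Relative viability is the ratio of nuclei in treated wells to nuclei in vehicle wells, taken as the median of duplicate plates.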

Doxorubicin + Linsitinib = compound: COc1cccc2c1C(=O)c1c(O)c3c(c(O)c1C2=O)C[C@@](O)(C(=O)CO)C[C@@H]3O[C@H]1C[C@H](N)[C@H](O)[C@H](C)O1 [Doxorubicin] + C[C@]1(O)C[C@@H](c2nc(-c3ccc4ccc(-c5ccccc5)nc4c3)c3c(N)nccn32)C1 [Linsitinib] (partner 1 µM)
Procedure, shortened: as §1

BAY61-3606 + Palbociclib = compound: COC1=C(C=C(C=C1)C2=CC3=NC=CN3C(=N2)NC4=C(C=CC=N4)C(=O)N)OC [BAY61-3606] + CC(=O)c1c(C)c2cnc(Nc3ccc(N4CCNCC4)cn3)nc2n(C2CCCC2)c1=O [Palbociclib] (partner 0.5 µM)
Procedure, shortened: as §1

BAY61-3606 + Navitoclax = compound: COC1=C(C=C(C=C1)C2=CC3=NC=CN3C(=N2)NC4=C(C=CC=N4)C(=O)N)OC [BAY61-3606] + CC1(C)CCC(c2ccc(Cl)cc2)=C(CN2CCN(c3ccc(C(=O)NS(=O)(=O)c4ccc(N[C@H](CCN5CCOCC5)CSc5ccccc5)c(S(=O)(=O)C(F)(F)F)c4)cc3)CC2)C1 [Navitoclax] (partner 0.5 µM)
Procedure, shortened: as §1

| Cell Line | relative viability (Doxorubicin + Crizotinib; first compound 0.001 µM) | relative viability (Doxorubicin + Crizotinib; first compound 0.003162 µM) | relative viability (Doxorubicin + Crizotinib; first compound 0.01 µM) | relative viability (Doxorubicin + Crizotinib; first compound 0.03162 µM) | relative viability (Doxorubicin + Crizotinib; first compound 0.1 µM) | relative viability (Doxorubicin + Linsitinib; first compound 0.001 µM) | relative viability (Doxorubicin + Linsitinib; first compound 0.003162 µM) | relative viability (Doxorubicin + Linsitinib; first compound 0.01 µM) | relative viability (Doxorubicin + Linsitinib; first compound 0.03162 µM) | relative viability (Doxorubicin + Linsitinib; first compound 0.1 µM) | relative viability (BAY61-3606 + Palbociclib; first compound 0.02 µM) | relative viability (BAY61-3606 + Palbociclib; first compound 0.06325 µM) | relative viability (BAY61-3606 + Palbociclib; first compound 0.2 µM) | relative viability (BAY61-3606 + Palbociclib; first compound 0.6325 µM) | relative viability (BAY61-3606 + Palbociclib; first compound 2 µM) | relative viability (BAY61-3606 + Navitoclax; first compound 0.02 µM) | relative viability (BAY61-3606 + Navitoclax; first compound 0.06325 µM) | relative viability (BAY61-3606 + Navitoclax; first compound 0.2 µM) | relative viability (BAY61-3606 + Navitoclax; first compound 0.6325 µM) | relative viability (BAY61-3606 + Navitoclax; first compound 2 µM) |
| --- | --- | --- | --- | --- | --- | --- | --- | --- | --- | --- | --- | --- | --- | --- | --- | --- | --- | --- | --- | --- |
| NCI-H2347 | 0.869 | 0.735 | 0.735 | 0.603 | 0.503 | 0.978 | 0.923 | 0.923 | 0.889 | 0.959 | 0.444 | 0.41 | 0.449 | 0.452 | 0.436 | 0.802 | 0.789 | 0.859 | 0.936 | 0.754 |
| NCI-H2405 | 0.843 | 0.869 | 0.846 | 0.871 | 0.85 | – | 0.938 | 0.887 | 0.707 | 0.519 | 0.564 | 0.517 | 0.503 | 0.592 | 0.494 | 0.904 | 0.669 | 0.857 | 1.08 | 0.655 |
| NCI-H3122 | 0.247 | 0.302 | 0.295 | 0.257 | 0.282 | 1.05 | 0.995 | 1.06 | 1.06 | 1 | 0.159 | 0.185 | 0.226 | 0.231 | 0.189 | 0.975 | 0.962 | 1.05 | 1 | 0.987 |
| PC-3 [JPC-3] | 0.999 | 1 | 0.977 | 0.931 | 0.936 | 1.01 | 0.992 | 0.94 | 0.907 | 0.901 | 0.531 | 0.512 | 0.529 | 0.521 | 0.517 | 0.826 | 0.849 | 0.773 | 0.805 | 0.776 |
| PC-14 | 0.893 | 0.985 | 0.962 | 0.892 | 0.944 | 0.924 | 0.982 | 0.959 | 0.922 | 0.948 | 0.455 | 0.546 | 0.468 | 0.514 | 0.453 | 1.04 | 1.11 | 0.983 | 1.01 | 0.982 |
| RERF-LC-KJ | 0.872 | 0.846 | 0.865 | 0.956 | 0.7 | 0.816 | 0.858 | 0.873 | 0.943 | 0.887 | 1.03 | 1.2 | 1.03 | 1.18 | 0.924 | 0.759 | 0.9 | 0.975 | 0.83 | 0.876 |
| SK-LU-1 | 1.15 | 1.03 | 0.639 | 0.472 | 0.32 | 1.1 | 1.23 | 0.891 | 0.435 | 0.43 | 0.356 | 0.384 | 0.35 | 0.357 | 0.289 | 1.19 | 0.836 | 0.695 | 0.812 | 0.55 |
| SK-MES-1 | 1.08 | 1.05 | 0.97 | 0.871 | 0.865 | 0.952 | 1.07 | 1.07 | 1.05 | 0.936 | 0.312 | 0.311 | 0.385 | 0.393 | 0.313 | 1.32 | 1.3 | 1.24 | 1.39 | 1.09 |
| SW 1573 | 0.905 | 0.794 | 0.85 | 0.687 | 0.69 | 0.669 | 0.831 | 0.858 | 0.586 | 0.529 | 0.455 | 0.423 | 0.35 | 0.344 | 0.248 | 0.84 | 0.918 | 0.832 | 0.97 | 0.683 |
